± gives the expanded uncertainty stated by the source.

Data on 26 compounds can be found in the NIST ThermoML archive (doi:10.1016/j.jct.2016.10.013).

A short description of series [1]: activity coefficient (dimensionless); of the first substance listed, at infinite dilution; xn = mol fraction of the nth substance listed. To be noted: 101.33 kPa, Liquid, Chromatography, x1 = 0.
The conditions of series [2]: 288.15 K; 101.33 kPa; Liquid; Vibrating tube method.
Series [3] is described as follows: refractive index (Na D-line) (dimensionless). To be noted: 293.15 K; 101.33 kPa; Liquid; Standard Abbe refractometry.

For `C=CCCCCC` [1-heptene] + OCCOCCO, the results for the activity coefficient in series [1] (304.15 K), in series [1] (313.15 K) and in series [1] (323.15 K) were 84 ± 3.8, 77.8 ± 3.5 and 73.4 ± 3.3, respectively.
Turning to `CCCCCCCCC` [nonane] + OCCO, the activity coefficient in series [1] (303.15 K) turned out to be 2960 ± 140; in series [1] (313.15 K), 2320 ± 110; in series [1] (323.15 K), 1970 ± 90.
The matching figures for `C1CCCC1` [cyclopentane] + OCCO: 163 ± 7, 149 ± 7 and 133 ± 6.
As to `C=CCCCCCC` [oct-1-ene] + OCCOCCO, the values for the activity coefficient in series [1] (304.15 K), in series [1] (313.15 K) and in series [1] (323.15 K) were 126 ± 6, 116 ± 5 and 108 ± 5, respectively.
The matching figures for `C1CCCC1` [cyclopentane] + OCCOCCO: 33.8 ± 1.5, 31.6 ± 1.4 and 30.1 ± 1.3.
As to `CCCCCCCC` [octane] + OCCOCCO, the values for the activity coefficient in series [1] (304.15 K), in series [1] (313.15 K) and in series [1] (323.15 K) were 249 ± 11, 223 ± 10 and 203 ± 9, respectively.
Turning to `CC1CCCCC1` [methylcyclohexane] + OCCOCCO, the activity coefficient was determined as 77.2 ± 5.3 in series [1] (304.15 K), 71.1 ± 4.9 in series [1] (313.15 K) and 66 ± 4.5 in series [1] (323.15 K).
Turning to `C=CCCCCCC` [oct-1-ene] + OCCO, the results for the activity coefficient in series [1] (303.15 K), in series [1] (313.15 K) and in series [1] (323.15 K) were 962 ± 44, 819 ± 37 and 736 ± 33, respectively.
Take `C1CCCCC1` [cyclohexane] + OCCO: the activity coefficient came to 270 ± 12 in series [1] (303.15 K), 238 ± 11 in series [1] (313.15 K) and 212 ± 10 in series [1] (323.15 K).
As for `CCCCCCCCC` [nonane] + OCCOCCO, the activity coefficient in series [1] (304.15 K) worked out at 371 ± 17; in series [1] (313.15 K) it was 329 ± 15; in series [1] (323.15 K) it was 295 ± 13.
The matching figures for `CCCCCC` [hexane] + OCCOCCO: 112 ± 5, 102 ± 5 and 94.2 ± 4.2.
With `CCCCCCC` [heptane] + OCCO, the results for the activity coefficient in series [1] (303.15 K), in series [1] (313.15 K) and in series [1] (323.15 K) were 1200 ± 54, 1030 ± 47 and 860 ± 39, respectively.
The like results for `CCCCCCCC` [octane] + OCCO were, in that order, 1960 ± 89, 1600 ± 73 and 1340 ± 61.
With `C=CCCCC` [hex-1-ene] + OCCOCCO, the values for the activity coefficient in series [1] (304.15 K), in series [1] (313.15 K) and in series [1] (323.15 K) were 56.3 ± 2.5, 52.4 ± 2.3 and 50.2 ± 2.2, respectively.
For `CCCCC` [pentane] + OCCO, the activity coefficient in series [1] (303.15 K) amounted to 436 ± 20; in series [1] (313.15 K), 389 ± 18; in series [1] (323.15 K), 338 ± 15.
For `OCCOCCO` [diethylene glycol], the mass density (usually the mass of a sample divided by its volume) in series [2] amounted to 1120.3 ± 2 kg/m3. For the same compound, in series [3], the refractive index (commonly a measure of how strongly the sample bends light) amounted to 1.4472 ± 0.0004.
As for `C=CCCCCCCC` [1-nonene] + OCCO, the activity coefficient in series [1] (303.15 K) was 1610 ± 73; in series [1] (313.15 K) it was 1300 ± 59; in series [1] (323.15 K), 1170 ± 53.
`C=CCCCCC` [1-heptene] + OCCO: the activity coefficient was 570 ± 26 in series [1] (303.15 K), 503 ± 23 in series [1] (313.15 K) and 452 ± 20 in series [1] (323.15 K).
For `CC1CCCCC1` [methylcyclohexane] + OCCO, the activity coefficient in series [1] (303.15 K) amounted to 473 ± 21; in series [1] (313.15 K), 407 ± 18; in series [1] (323.15 K), 370 ± 17.
Consider `CCCCCC` [hexane] + OCCO, for which the activity coefficient in series [1] (303.15 K) amounted to 716 ± 32; in series [1] (313.15 K) it was 620 ± 28; in series [1] (323.15 K) it was 543 ± 25.
For the compound `C=CCCCC` [hex-1-ene] + OCCO, the activity coefficient in series [1] (303.15 K) was determined as 330 ± 15; in series [1] (313.15 K) it was 298 ± 13; in series [1] (323.15 K), 272 ± 12.
Take `CCCCCCC` [heptane] + OCCOCCO: the activity coefficient in series [1] (304.15 K) was 174 ± 8; in series [1] (313.15 K), 151 ± 7; in series [1] (323.15 K), 140 ± 6.
The like results for `C=CCCCCCCC` [1-nonene] + OCCOCCO were, in that order, 188 ± 8, 174 ± 8 and 159 ± 7.
The like results for `C1CCCCC1` [cyclohexane] + OCCOCCO were, in that order, 50.6 ± 2.3, 46.7 ± 2.1 and 43.5 ± 1.9.
Take `CCCCC` [pentane] + OCCOCCO: the activity coefficient in series [1] (304.15 K) turned out to be 74.1 ± 3.3; in series [1] (313.15 K), 70.5 ± 3.1; in series [1] (323.15 K) it was 66.4 ± 3.
Turning to `OCCO` [1,2-ethanediol], the refractive index in series [3] is given as 1.4319 ± 0.0004.
